Laboratory results taken from patent US12083124B2 (Incyte Corporation, priority 2019, dated 2024).
Like-named read-outs stand apart in the source and are kept apart here.

What was measured:
[1] = target: wild-type un-phosphorylated FGFR3 (Homo sapiens, UniProt P22607); assay: FGFR Enzymatic Assay (FRET peptide phosphorylation), FGFR3
[2] = target: wild-type un-phosphorylated FGFR1 (Homo sapiens, UniProt P11362); assay: FGFR Enzymatic Assay (FRET peptide phosphorylation), FGFR1; conditions: pre-incubated for 4 hours
wild-type un-phosphorylated FGFR1, sequence (P11362 22-822): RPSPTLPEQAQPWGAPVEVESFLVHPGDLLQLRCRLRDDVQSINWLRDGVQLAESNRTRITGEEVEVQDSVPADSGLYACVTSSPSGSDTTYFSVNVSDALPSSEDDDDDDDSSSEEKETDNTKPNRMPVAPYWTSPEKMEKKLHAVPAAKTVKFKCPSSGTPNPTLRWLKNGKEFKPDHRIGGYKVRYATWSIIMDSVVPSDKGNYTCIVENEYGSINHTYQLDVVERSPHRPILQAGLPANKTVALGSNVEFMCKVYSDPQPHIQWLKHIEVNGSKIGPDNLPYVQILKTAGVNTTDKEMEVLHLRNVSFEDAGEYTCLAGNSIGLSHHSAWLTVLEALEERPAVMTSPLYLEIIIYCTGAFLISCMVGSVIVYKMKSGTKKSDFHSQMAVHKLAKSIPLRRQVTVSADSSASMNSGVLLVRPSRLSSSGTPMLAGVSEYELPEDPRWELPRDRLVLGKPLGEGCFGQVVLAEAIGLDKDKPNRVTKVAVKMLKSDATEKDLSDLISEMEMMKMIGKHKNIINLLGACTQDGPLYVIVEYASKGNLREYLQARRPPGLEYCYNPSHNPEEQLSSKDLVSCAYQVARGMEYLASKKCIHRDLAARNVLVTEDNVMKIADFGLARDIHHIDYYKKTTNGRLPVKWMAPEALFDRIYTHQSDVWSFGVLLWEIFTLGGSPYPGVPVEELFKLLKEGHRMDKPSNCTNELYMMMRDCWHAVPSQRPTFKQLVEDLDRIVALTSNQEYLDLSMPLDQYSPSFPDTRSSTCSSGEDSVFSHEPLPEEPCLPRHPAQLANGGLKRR

[3] = target: wild-type un-phosphorylated FGFR4 (Homo sapiens, UniProt P22455); assay: FGFR Enzymatic Assay (FRET peptide phosphorylation), FGFR4
wild-type un-phosphorylated FGFR4, sequence (P22455 22-802): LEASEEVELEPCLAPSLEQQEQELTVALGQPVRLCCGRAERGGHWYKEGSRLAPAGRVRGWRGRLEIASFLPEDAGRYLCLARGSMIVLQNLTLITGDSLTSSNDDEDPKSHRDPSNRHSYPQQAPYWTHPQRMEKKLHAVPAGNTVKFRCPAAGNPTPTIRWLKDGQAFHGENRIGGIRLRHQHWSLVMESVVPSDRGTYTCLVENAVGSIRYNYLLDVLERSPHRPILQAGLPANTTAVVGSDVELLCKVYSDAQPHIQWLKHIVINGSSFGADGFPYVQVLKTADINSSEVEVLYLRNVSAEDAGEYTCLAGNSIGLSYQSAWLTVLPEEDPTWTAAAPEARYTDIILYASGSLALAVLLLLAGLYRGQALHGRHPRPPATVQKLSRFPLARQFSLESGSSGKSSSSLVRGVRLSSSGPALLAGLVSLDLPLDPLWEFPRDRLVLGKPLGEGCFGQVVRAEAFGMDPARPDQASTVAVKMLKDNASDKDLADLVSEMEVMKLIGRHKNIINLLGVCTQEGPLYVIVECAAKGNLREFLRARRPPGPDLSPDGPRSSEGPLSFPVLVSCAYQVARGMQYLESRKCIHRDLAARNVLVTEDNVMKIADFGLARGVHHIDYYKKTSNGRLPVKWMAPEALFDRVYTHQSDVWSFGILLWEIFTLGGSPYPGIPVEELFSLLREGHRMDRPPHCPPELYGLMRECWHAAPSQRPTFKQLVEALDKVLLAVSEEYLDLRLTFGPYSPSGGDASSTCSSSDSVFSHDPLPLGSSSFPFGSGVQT
Experimental: The inhibitor potency of the exemplified compounds was determined in an enzyme discontinuous assay that measures peptide phosphorylation using FRET measurements to detect product formation. Inhibitors were serially diluted in DMSO and a volume of 0.2 μL was transferred to the wells of a 384-well plate. […] Appropriate controls (enzyme blank and enzyme with no inhibitor) were included on the plate. […] The 10 μL/well reaction concentration of the peptide substrate was 500 nM whereas the ATP concentration was maintained near or below the ATP Km. The ATP Km values were pre-determined in a separate series of experiments. The reaction plate was incubated at 25° C. for 1 hr and the reactions were ended with the addition of 5 μL/well of quench solution (50 mM Tris, 150 mM NaCl, 0.5 mg/mL BSA, pH 7.8; 45 mM EDTA, 600 nM staurosporin, with Perkin Elmer Lance Reagents at 3.75 nM Eu-antibody PY20 and 180 nM APC-Streptavidin). The plate was allowed to equilibrate for ˜10 minutes at ambient temperature before scanning on a PheraStar plate reader (BMG Labtech) instrument.
Either GraphPad prism or XLfit was used to analyze the data. The IC50 values were derived by fitting the data to a four parameter logistic equation producing a sigmoidal dose-response curve with a variable Hill coefficient. Prism equation: Y=Bottom+(Top-Bottom)/(1+10^((Log IC50-X)*Hill slope)); XLfit equation: Y=(A+((B−A)/(1+((X/C)^D)))) where X is the logarithm of inhibitor concentration and Y is the response.
GraphPad prism3 was used to analyze the data. The IC50 values were derived by fitting the data to the equation for a sigmoidal dose-response with a variable slope. Y=Bottom+(Top-Bottom)/(1+10^((Log IC50-X)*Hill Slope)) where X is the logarithm of concentration and Y is the response.
The data in Table 1 was measured in wild-type un-phosphorylated FGFR1, FGFR2, FGFR3, and FGFR4 proteins.

[4] = target: wild-type un-phosphorylated FGFR2 (Homo sapiens, UniProt P21802); assay: FGFR Enzymatic Assay (FRET peptide phosphorylation), FGFR2
wild-type un-phosphorylated FGFR2, sequence (P21802 22-821): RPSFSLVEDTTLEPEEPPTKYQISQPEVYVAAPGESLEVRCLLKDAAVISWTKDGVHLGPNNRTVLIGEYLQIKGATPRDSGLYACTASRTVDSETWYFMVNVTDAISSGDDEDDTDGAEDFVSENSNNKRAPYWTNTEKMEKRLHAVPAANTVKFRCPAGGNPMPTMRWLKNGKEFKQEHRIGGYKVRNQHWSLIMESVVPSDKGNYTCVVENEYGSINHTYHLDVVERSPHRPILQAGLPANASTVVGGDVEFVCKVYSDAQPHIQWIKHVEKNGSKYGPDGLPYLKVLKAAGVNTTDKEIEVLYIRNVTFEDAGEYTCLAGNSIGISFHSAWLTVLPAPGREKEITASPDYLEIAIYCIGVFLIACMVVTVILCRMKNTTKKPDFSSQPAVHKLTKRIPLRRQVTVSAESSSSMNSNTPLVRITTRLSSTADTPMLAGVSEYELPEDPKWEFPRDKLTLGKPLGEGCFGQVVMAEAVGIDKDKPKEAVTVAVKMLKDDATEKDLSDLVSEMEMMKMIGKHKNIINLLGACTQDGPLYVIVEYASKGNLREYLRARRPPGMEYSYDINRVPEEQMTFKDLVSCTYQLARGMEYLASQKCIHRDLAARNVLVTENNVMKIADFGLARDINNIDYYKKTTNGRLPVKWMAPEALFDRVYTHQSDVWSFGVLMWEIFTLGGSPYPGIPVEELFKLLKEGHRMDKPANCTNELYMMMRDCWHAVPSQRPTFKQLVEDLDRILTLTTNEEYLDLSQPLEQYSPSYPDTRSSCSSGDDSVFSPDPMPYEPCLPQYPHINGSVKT

[5] = FGFR1, wild-type un-phosphorylated FGFR1
[6] = read-out: FGFR2, wild-type un-phosphorylated FGFR2, pre-incubated for 4 hours
[7] = read-out: FGFR1, wild-type un-phosphorylated FGFR1
[8] = read-out: FGFR4, wild-type un-phosphorylated FGFR4, pre-incubated for 4 hours
[9] = read-out: FGFR3, wild-type un-phosphorylated FGFR3, pre-incubated for 4 hours

wild-type un-phosphorylated FGFR3, sequence (P22607 23-806): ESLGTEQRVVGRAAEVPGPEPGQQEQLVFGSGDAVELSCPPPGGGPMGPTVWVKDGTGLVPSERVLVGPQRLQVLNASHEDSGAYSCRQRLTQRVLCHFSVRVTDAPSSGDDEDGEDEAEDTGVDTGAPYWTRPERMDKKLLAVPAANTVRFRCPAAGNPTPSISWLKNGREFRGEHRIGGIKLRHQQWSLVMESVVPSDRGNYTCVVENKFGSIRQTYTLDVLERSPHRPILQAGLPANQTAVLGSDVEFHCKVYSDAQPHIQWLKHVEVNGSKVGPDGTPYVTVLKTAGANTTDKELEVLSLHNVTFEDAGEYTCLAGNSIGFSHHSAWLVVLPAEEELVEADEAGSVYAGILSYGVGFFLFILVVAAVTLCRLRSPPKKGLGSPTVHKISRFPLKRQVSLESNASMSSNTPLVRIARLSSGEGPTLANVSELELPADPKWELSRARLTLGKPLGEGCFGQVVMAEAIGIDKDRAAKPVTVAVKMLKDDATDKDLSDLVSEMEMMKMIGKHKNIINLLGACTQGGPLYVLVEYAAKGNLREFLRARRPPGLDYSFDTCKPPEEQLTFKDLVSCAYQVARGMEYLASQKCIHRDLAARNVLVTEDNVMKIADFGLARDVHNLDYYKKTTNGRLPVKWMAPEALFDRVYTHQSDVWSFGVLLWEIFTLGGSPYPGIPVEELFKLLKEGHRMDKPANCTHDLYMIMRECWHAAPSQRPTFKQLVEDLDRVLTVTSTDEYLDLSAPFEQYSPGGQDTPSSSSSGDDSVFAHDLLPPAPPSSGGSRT

SMILES	IC50 [1]	IC50 [2, 5]	IC50 [3]	IC50 [4, 6]	IC50 [2, 7]	IC50 [4]	IC50 [3, 8]	IC50 [1, 9]
COc1cc2[nH]nc(-c3cnn(C)c3)c2nc1-c1cccc2c1CC(O)C2 (single isomer, unassigned) [Example 10, 4-(6-Methoxy-3-(1-methyl-1H-pyrazol-4-yl)-1H-pyrazolo[4,3-b]pyridin-5-yl)-2,3-dihydro-1H-inden-2-ol]	< 6 nM	40 to 100 nM	> 100 nM	6 to 40 nM	–	–	–	–
[2H]C1(O)Cc2cccc(-c3nc4c(-c5cnn(C)c5)n[nH]c4cc3OC)c2C1 (single isomer, unassigned) [Example 74, 4-(6-Methoxy-3-(1-methyl-1H-pyrazol-4-yl)-1H-pyrazolo[4,3-b]pyridin-5-yl) 2,3-dihydro-1H-inden-2-d-2-ol]	< 6 nM	–	> 100 nM	–	6 to 40 nM	< 6 nM	–	–
COc1cc2[nH]nc(-c3ccc(C4CCN(C(=O)CO)C4)nc3)c2nc1-c1cccc2c1CCC2 (single isomer, unassigned) [Example 101, 1-(3-(5-(5-(2,3-Dihydro-1H-inden-4-yl)-6-methoxy-1H-pyrazolo[4,3-b]pyridin-3-yl)pyridin-2-yl)pyrrolidin-1-yl)-2-hydroxyethan-1-one]	< 6 nM	–	–	–	6 to 40 nM	< 6 nM	6 to 40 nM	–
COc1cc2[nH]nc(-c3ccc(C4CCN(C(=O)CO)C4)nc3)c2nc1-c1cccc2c1CCC2 (single isomer, unassigned) [Example 102, 1-(3-(5-(5-(2,3-Dihydro-1H-inden-4-yl)-6-methoxy-1H-pyrazolo[4,3-b]pyridin-3-yl)pyridin-2-yl)pyrrolidin-1-yl)-2-hydroxyethan-1-one]	–	–	–	< 6 nM	6 to 40 nM	–	6 to 40 nM	< 6 nM
COc1cc2[nH]nc(-c3ccc(C4CCN(C(C)=O)C4)nc3)c2nc1-c1cccc2c1CCC2 (single isomer, unassigned) [Example 103, 1-(3-(5-(5-(2,3-Dihydro-1H-inden-4-yl)-6-methoxy-1H-pyrazolo[4,3-b]pyridin-3-yl)pyridin-2-yl)pyrrolidin-1-yl)ethan-1-one]	< 6 nM	–	–	–	6 to 40 nM	< 6 nM	6 to 40 nM	–
COc1cc2[nH]nc(-c3ccc(C4CCN(C(C)=O)C4)nc3)c2nc1-c1cccc2c1CCC2 (single isomer, unassigned) [Example 104, 1-(3-(5-(5-(2,3-Dihydro-1H-inden-4-yl)-6-methoxy-1H-pyrazolo[4,3-b]pyridin-3-yl)pyridin-2-yl)pyrrolidin-1-yl)ethan-1-one]	–	–	–	< 6 nM	6 to 40 nM	–	6 to 40 nM	< 6 nM
COc1cc2[nH]nc(-c3ccc(C4CCN(C5CCNC5=O)C4)nc3)c2nc1-c1cccc2c1CCC2 (single isomer, unassigned) [Example 105, 3-(5-(5-(2,3-Dihydro-1H-inden-4-yl)-6-methoxy-1H-pyrazolo[4,3-b]pyridin-3-yl)pyridin-2-yl)-[1,3′-bipyrrolidin]-2′-one]	< 6 nM	–	–	–	6 to 40 nM	< 6 nM	6 to 40 nM	–
COc1cc2[nH]nc(-c3ccc(C4CCN(C5CCN(C)C5=O)C4)nc3)c2nc1-c1cccc2c1CCC2 (single isomer, unassigned) [Example 106, 3-(5-(5-(2,3-Dihydro-1H-inden-4-yl)-6-methoxy-1H-pyrazolo[4,3-b]pyridin-3-yl)pyridin-2-yl)-1′-methyl-[1,3′-bipyrrolidin]-2′-one]	< 6 nM	–	–	–	6 to 40 nM	< 6 nM	6 to 40 nM	–
COc1cc2[nH]nc(-c3cnn(Cc4ccncc4)c3)c2nc1-c1cccc2c1CCC2 [Example 27, 5-(2,3-Dihydro-1H-inden-4-yl)-6-methoxy-3-(1-(pyridin-4-ylmethyl)-1H-pyrazol-4-yl)-1H-pyrazolo[4,3-b]pyridine]	–	40 to 100 nM	40 to 100 nM	–	–	< 6 nM	–	–
COc1cc2[nH]nc(-c3ccc(N4CCN5C[C@H](O)C[C@H]5C4)nc3)c2nc1-c1cccc(OC)c1C [Example 90, (7R,8aS)-2-(5-(6-Methoxy-5-(3-methoxy-2-methylphenyl)-1H-pyrazolo[4,3-b]pyridin-3-yl)pyridin-2-yl)octahydropyrrolo[1,2-a]pyrazin-7-ol]	< 6 nM	> 100 nM	–	6 to 40 nM	–	–	–	–
COc1cc2[nH]nc(-c3ccc(N4CCN5C[C@H](O)C[C@H]5C4)nc3)c2nc1-c1cccc2c1OCCO2 [Example 91, (7R,8aS)-2-(5-(5-(2,3-Dihydrobenzo[b][1,4]dioxin-5-yl)-6-methoxy-1H-pyrazolo[4,3-b]pyridin-3-yl)pyridin-2-yl)octahydropyrrolo[1,2-a]pyrazin-7-ol]	< 6 nM	> 100 nM	–	6 to 40 nM	–	–	–	–
COc1cc2[nH]nc(-c3ccc(N4CCN5C[C@H](O)C[C@H]5C4)nc3)c2nc1-c1ccccc1C1CC1 [Example 92, (7R,8aS)-2-(5-(5-(2-Cyclopropylphenyl)-6-methoxy-1H-pyrazolo[4,3-b]pyridin-3-yl)pyridin-2-yl)octahydropyrrolo[1,2-a]pyrazin-7-ol]	< 6 nM	> 100 nM	–	6 to 40 nM	–	–	–	–
COc1cc2[nH]nc(-c3ccc(N4CCN5C[C@H](O)C[C@H]5C4)nc3)c2nc1-c1cccc2c1CCCO2 [Example 93, (7R,8aS)-2-(5-(5-(Chroman-5-yl)-6-methoxy-1H-pyrazolo[4,3-b]pyridin-3-yl)pyridin-2-yl)octahydropyrrolo[1,2-a]pyrazin-7-ol]	< 6 nM	> 100 nM	–	6 to 40 nM	–	–	–	–
COc1cc2[nH]nc(-c3ccc(N4CCN5C[C@H](O)C[C@H]5C4)nc3)c2nc1-c1cccc(C)c1F [Example 94, (7R,8aS)-2-(5-(5-(2-Fluoro-3-methylphenyl)-6-methoxy-1H-pyrazolo[4,3-b]pyridin-3-yl)pyridin-2-yl)octahydropyrrolo[1,2-a]pyrazin-7-ol]	< 6 nM	> 100 nM	–	6 to 40 nM	–	–	–	–

Continued, values first:

IC50 [1]	IC50 [2, 5]	IC50 [3]	IC50 [4, 6]	IC50 [2, 7]	IC50 [4]	IC50 [3, 8]	IC50 [1, 9]	SMILES
< 6 nM	–	–	–	6 to 40 nM	< 6 nM	6 to 40 nM	–	COc1cc2[nH]nc(-c3ccc(C4CCN(C(C)C(N)=O)C4)nc3)c2nc1-c1cccc2c1CCC2 (single isomer, unassigned) [Example 107, 2-(3-(5-(5-(2,3-Dihydro-1H-inden-4-yl)-6-methoxy-1H-pyrazolo[4,3-b]pyridin-3-yl)pyridin-2-yl)pyrrolidin-1-yl)propanamide]
< 6 nM	–	–	–	6 to 40 nM	< 6 nM	6 to 40 nM	–	COc1cc2[nH]nc(-c3ccc(C4CCN(C(=O)C5COCCN5C)C4)nc3)c2nc1-c1cccc2c1CCC2 (single isomer, unassigned) [Example 109]
< 6 nM	–	–	–	6 to 40 nM	< 6 nM	6 to 40 nM	–	COc1cc2[nH]nc(-c3ccc(C4CCC(N(C)C(=O)CO)C4)nc3)c2nc1-c1cccc2c1CCC2 (single isomer, unassigned) [Example 155, N-(3-(5-(5-(2,3-Dihydro-1H-inden-4-yl)-6-methoxy-1H-pyrazolo[4,3-b]pyridin-3-yl)pyridin-2-yl)cyclopentyl)-2-hydroxy-N-methylacetamide]
< 6 nM	–	–	–	6 to 40 nM	< 6 nM	6 to 40 nM	–	COCC(=O)N1CC[C@H](n2cc(-c3n[nH]c4cc(OC)c(-c5cccc6c5CCC6C#N)nc34)cn2)C1 (single isomer, unassigned) [Example 168]
< 6 nM	–	–	–	6 to 40 nM	< 6 nM	6 to 40 nM	–	COc1cc2[nH]nc(-c3ccc(C4CCN(C(=O)N5CCOCC5)CC4)nc3)c2nc1-c1cccc2c1CCC2C#N (single isomer, unassigned) [Example 181, 4-(6-Methoxy-3-(6-(1-(morpholine-4-carbonyl)piperidin-4-yl)pyridin-3-yl)-1H-pyrazolo[4,3-b]pyridin-5-yl)-2,3-dihydro-1H-indene-1-carbonitrile]
< 6 nM	–	–	–	6 to 40 nM	< 6 nM	–	–	COc1cc2[nH]nc(-c3ccc(C45CC4CN(C(=O)[C@H]4COCCN4C)C5)nc3)c2nc1-c1cccc2c1CCC2 (stereo partly drawn) [Example 192, (1-(5-(5-(2,3-Dihydro-1H-inden-4-yl)-6-methoxy-1H-pyrazolo[4,3-b]pyridin-3-yl)pyridin-2-yl)-3-azabicyclo[3.1.0]hexan-3-yl)((R)-4-methylmorpholin-3-yl)methanone]
< 6 nM	–	–	–	6 to 40 nM	< 6 nM	–	–	COc1cc2[nH]nc(-c3ccc(C4(C#N)CCN(C(=O)[C@H]5COCCN5C)C4)nc3)c2nc1-c1cccc2c1CCC2 (stereo partly drawn) [Example 195, 3-(5-(5-(2,3-Dihydro-1H-inden-4-yl)-6-methoxy-1H-pyrazolo[4,3-b]pyridin-3-yl)pyridin-2-yl)-1-((R)-4-methylmorpholine-3-carbonyl)pyrrolidine-3-carbonitrile]
< 6 nM	–	–	–	6 to 40 nM	< 6 nM	–	–	COc1cc2[nH]nc(-c3ccc(C4(C#N)CCN(C(=O)[C@H]5COCCN5C)CC4)nc3)c2nc1-c1cccc2c1CCC2 [Example 196, (R)-4-(5-(5-(2,3-Dihydro-1H-inden-4-yl)-6-methoxy-1H-pyrazolo[4,3-b]pyridin-3-yl)pyridin-2-yl)-1-(4-methylmorpholine-3-carbonyl)piperidine-4-carbonitrile]
< 6 nM	–	–	–	6 to 40 nM	< 6 nM	–	–	COc1cc2[nH]nc(-c3cnn(C45CC4CN(C(=O)CO)C5)c3)c2nc1-c1cccc2c1CCC2 (stereo not shown) [Example 197, 1-(1-(4-(5-(2,3-Dihydro-1H-inden-4-yl)-6-methoxy-1H-pyrazolo[4,3-b]pyridin-3-yl)-1H-pyrazol-1-yl)-3-azabicyclo[3.1.0]hexan-3-yl)-2-hydroxyethan-1-one]
